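Results reflect a 48-hour exposure of cells in 96-well plates to compound at five concentrations. The concentration for full growth arrest is given as TGI.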
Experiments:
Assay in all cases: NCI anticancer screen, dose series, 48 h
[1] = system: DMS 273 small cell lung
[2] = system: KM20L2 colon
[3] = system: LXFL 529 NSCLC
[4] = system: SNB-78 CNS
[5] = system: XF 498 CNS
[6] = system: RXF-631 renal
[7] = system: MDA-N

Compound	TGI [1] [µM]	TGI [2] [µM]	TGI [3] [µM]	TGI [4] [µM]	TGI [5] [µM]	TGI [6] [µM]	TGI [7] [µM]
CC(C)(C)c1cc(CCC(=O)Nc2ccc(Cl)cc2)nc(NC#N)n1	> 100	> 100	> 100	> 100			
Cc1ccc(NC(=O)CC(=O)n2nc(C)c(N=Nc3ccccc3C(=O)O)c2C)cc1	> 100	> 100	> 100	> 100	> 100	> 100	
CCCC1N2CCCCC2[C@@H]2c3[nH]c4ccccc4c3CCN12 (stereo not given in full)	> 100	> 100	> 100	> 100	> 100		
N#C/C(=C\c1ccc2ccccc2c1)c1ccccc1	35.8	34.9	> 100	84.7		> 100	
O=C(N/C(=C\c1cccc([N+](=O)[O-])c1)c1nc2ccc([N+](=O)[O-])cc2[nH]1)c1ccccc1	> 100	> 100	75.1	> 100	59.8	> 100	
NC12CC3CC(C1)CC(C(=O)O)(C3)C2	> 100	> 100	> 100	> 100	> 100		
COCCCNC(=O)C1C(=O)C(=O)N(CCCOC)C1=O (stereo not given)	> 100	> 100	> 100	> 100		> 100	
CN(C)CCNC(=O)c1cccc2ccc(-c3ccncc3)nc12	7.76			> 100			
CC(=O)OCC1OC(NC(=S)N/N=C2\CC(c3ccccc3)Oc3ccccc32)C(OC(C)=O)C(OC(C)=O)C1OC(C)=O (stereo not given)	> 100	> 100	> 100	> 100	> 100	> 100	
CCOC(=O)/C(=C\c1ccccc1)C(=O)O	> 100	> 100		> 100	> 100		
O=C(O)CCSC(=O)Nc1ccc([N+](=O)[O-])cc1	> 100		> 100	> 100			
COc1ccc(NC(=O)CC(=O)N/N=C/c2ccc(N(CCC#N)S(C)(=O)=O)cc2)cc1	> 100	> 100	> 100	> 100		> 100	
CCOC(=S)SSSC(=S)OCC							> 100
COc1cc(Nc2nc3ccccc3nc2-c2cccs2)cc(OC)c1OC	> 100	> 100	> 100	> 100	76.6		
O=[N+]([O-])c1ccc(C=NC2CCCCC2)cc1	> 100	> 100		> 100	> 100	> 100	
COc1cc(C(=O)CBr)c(OC)cc1C							> 100
NC(=O)COC(=O)c1c(Cl)nc2sccn12	> 100	> 100	> 100	> 100	> 100	> 100	
CCN(CC)C(c1ccc(N(C)C)cc1)C(c1ccc(N(C)C)cc1)N(CC)CC (stereo not given)	> 73	> 73	> 73	> 73		> 73	
COc1ccc2c(c1)[n+](=O)c(C(=O)C/C(=N/OCCCc1ccccc1)C(=O)NC13CC4CC(CC(C4)C1)C3)c(C)n2[O-]	> 100	> 100	> 100	> 100	> 100	> 100	
CNC(=O)C1CCc2nnc(-c3ccccc3)n21 (stereo not given)	> 100	> 100	> 100	> 100		> 100	
COc1ccc2nc3c(C(=O)NCCN(C)C)cccc3nc2c1	23.8			72			
CC(C)(CO)N1CCN(C(=S)Nc2ccccc2)CC1							> 100

Compound	TGI [1] [µM]	TGI [2] [µM]	TGI [3] [µM]	TGI [4] [µM]	TGI [5] [µM]	TGI [6] [µM]	TGI [7] [µM]
C/C(CC(=O)Nc1cc(C)ccc1C)=N\NC(=O)c1ccncc1		> 100	> 100	> 100		> 100	
Nc1c(-c2ccc(Cl)cc2)[n+]([O-])c2ccccc2[n+]1[O-]	> 100	> 100	> 100	> 100	> 100		
O=C1C(Cl)=C(NCCN2CCOCC2)C(=O)c2ncccc21							0.389
O=C(CC1(O)C(=O)Nc2c(Cl)ccc(Cl)c21)c1ccc(F)cc1 (stereo not given)	> 100	> 100	92.1	> 100	77.1	> 100	
O=C(O)C(=Cc1ccc(-c2ccccc2)cc1)C(=O)O							> 100
Cc1cc(Cl)cc2c1NC(=O)C2(O)CC(=O)c1ccco1 (stereo not given)	> 100		> 100	> 100	> 100	> 100	22.9
CC(SC(=S)N1CCOCC1)c1cc2oc(=O)n(C)c2cc1Cl (stereo not given)	> 100	> 100	> 100	> 100	> 100		
Cc1cc(N(CCC#N)CCC#N)ccc1/C=C1\N=C(c2cc([N+](=O)[O-])ccc2Cl)N(c2cccc(Cl)c2)C1=O	> 100	> 100	> 100	> 100		> 100	
O/N=C/c1ncccc1C1OCCO1	> 100	> 100	> 100	> 100	> 100		
C[C@@H]1OC(=O)N2CCCC(=C3SCCCS3)C12 (stereo not given in full)	> 100	> 100	> 100	> 100	> 100		
O=C1c2cccc([N+](=O)[O-])c2C(=O)N1c1ncn[nH]1							> 100
COc1ccc(N2C(=O)/C(=C/c3ccc(N(CCC#N)CCC#N)cc3C)N=C2c2cc([N+](=O)[O-])ccc2Cl)cc1	> 27	7.39	> 100	> 100	8.12		4.98
O=C1c2ccccc2C(=O)N1CCc1ncc[nH]1							> 100
C/C(O)=C(\N=O)C(=O)Nc1ccc(Cl)cc1Cl	> 100	> 100	> 100	> 100			
Cc1c(C(=O)C/C(=N/NC(=O)C[N+](C)(C)C)C(=O)Nc2ccc(Cl)cc2)[n+](=O)c2ccccc2n1O	> 100	> 100	> 100	> 100	> 100	> 100	
O=C(CC1(O)C(=O)Nc2ccccc21)c1ccncc1 (stereo not given)	> 100	> 100	> 100	> 100			
CCOC(=O)/C(C#N)=C/c1[nH]c(C(=O)OCc2ccccc2)c(C)c1C	> 100	> 100	> 100			> 100	
COC1(OC)CC2OC1C1N=NN(C(=O)OC(C)(C)C)C21 (stereo not given)	> 100	> 100	> 100	> 100	> 100	> 100	
COc1ccc(C(=O)C#Cc2cnc(OC)nc2OC)cc1							3.89
O=C(O)c1nn(-c2ccccc2-c2n[nH]c(=O)[nH]c2=O)c(=O)[nH]c1=O							> 100
CC1CN1C(=O)NCCCCCCNC(=O)N1CC1C (stereo not given)	> 100	> 100	> 100		> 100		> 100

From PubChem BioAssay (NCI)
